{
  "source": "paper PMC4052943",
  "about": "(BioMed Research International, 2014)",
  "key": {"[1]": {"system": "Salmonella typhimurium TA100", "assay": "Ames antimutagenicity assay (preincubation)", "settings": "for inhibition at 50 µM / inhibition at 100 µM / inhibition at 250 µM / inhibition at 500 µM: Salmonella enterica, TYPHIMURIUM", "protocol": "(§1) In the preincubation experiment, test compounds and mutagen, each having a volume of 0.1 mL of varying concentrations, were preincubated at 37°C for 30 min and then 0.1 mL of 1 × 10^7 CFU/mL density of the bacterial culture was added, followed by the addition of 2.5 mL of top agar at 45°C (containing 0.5% NaCl and 0.6% agar) supplemented with 0.5 mM histidine-biotin. […] The combined solutions were vortexed and poured onto minimal glucose plates (40% glucose solution and Vogel Bonner medium). The plates were incubated at 37°C for 48 h and the numbers of histidine-independent revertants colonies were scored.\n(§2) Survival of the bacteria was routinely monitored for each experiment. Parallel controls were run with compounds alone at all concentrations to test the possible toxicity. The concentrations of the test samples for investigating the antimutagenicity were 50, 100, 200, and 500 μM. […] All the test samples and mutagens were dissolved in DMSO (final conc., 0.01%). […] Plates were set up in triplicate for each concentration and the entire experiment was repeated three times. Inhibition of mutagenicity was expressed as percentage decrease of reverse mutation and calculated as (1) Percent inhibition=[(a−b)/(a−c)]×100, where a = number of histidine revertants induced by mutagen, b = number of histidine revertants induced by mutagen in the presence of test compound, and c = number of revertants induced in negative control."}, "[2]": {"system": "Salmonella typhimurium TA102", "assay": "Ames antimutagenicity assay (preincubation)", "settings": "for inhibition at 50 µM / inhibition at 100 µM / inhibition at 250 µM / inhibition at 500 µM: Salmonella enterica, TYPHIMURIUM", "protocol": "as §1, §2"}},
  "note": "Where two headings read alike, the source gives them in different places.",
  "data": [
    {"smiles": "O=c1oc2c(O)c(O)cc3c(=O)oc4c(O)c(O)cc1c4c23", "note": "[Ellagic acid, ellagic acid]", "values": [
      {"measurement": "inhibition at 50 µM", "setting": "[1]; read-out: % inhibition of mutagenicity, TA 100, 50 μM + 2AF, S9", "result": 22.5, "unit": "%"},
      {"measurement": "inhibition at 50 µM", "setting": "[1]; read-out: % inhibition of mutagenicity, TA 100, 50 μM + BP, S9", "result": 21.8, "unit": "%"},
      {"measurement": "inhibition at 50 µM", "setting": "[1]; read-out: % inhibition of mutagenicity, TA 100, 50 μM + MMS, no S9", "result": 8, "unit": "%"},
      {"measurement": "inhibition at 50 µM", "setting": "[1]; read-out: % inhibition of mutagenicity, TA 100, 50 μM + NaN3, no S9", "result": 11.4, "unit": "%"},
      {"measurement": "inhibition at 100 µM", "setting": "[1]; read-out: % inhibition of mutagenicity, TA 100, 100 μM + 2AF, S9", "result": 46.1, "unit": "%"},
      {"measurement": "inhibition at 100 µM", "setting": "[1]; read-out: % inhibition of mutagenicity, TA 100, 100 μM + BP, S9", "result": 42.8, "unit": "%"},
      {"measurement": "inhibition at 100 µM", "setting": "[1]; read-out: % inhibition of mutagenicity, TA 100, 100 μM + MMS, no S9", "result": 26.4, "unit": "%"},
      {"measurement": "inhibition at 100 µM", "setting": "[1]; read-out: % inhibition of mutagenicity, TA 100, 100 μM + NaN3, no S9", "result": 25.6, "unit": "%"},
      {"measurement": "inhibition at 250 µM", "setting": "[1]; read-out: % inhibition of mutagenicity, TA 100, 250 μM + BP, S9", "result": 70, "unit": "%"},
      {"measurement": "inhibition at 250 µM", "setting": "[1]; read-out: % inhibition of mutagenicity, TA 100, 250 μM + MMS, no S9", "result": 45.1, "unit": "%"},
      {"measurement": "inhibition at 250 µM", "setting": "[1]; read-out: % inhibition of mutagenicity, TA 100, 250 μM + NaN3, no S9", "result": 46.4, "unit": "%"},
      {"measurement": "inhibition at 500 µM", "setting": "[1]; read-out: % inhibition of mutagenicity, TA 100, 500 μM + 2AF, S9", "result": 83.8, "unit": "%"},
      {"measurement": "inhibition at 500 µM", "setting": "[1]; read-out: % inhibition of mutagenicity, TA 100, 500 μM + BP, S9", "result": 88.9, "unit": "%"},
      {"measurement": "inhibition at 500 µM", "setting": "[1]; read-out: % inhibition of mutagenicity, TA 100, 500 μM + MMS, no S9", "result": 65.3, "unit": "%"},
      {"measurement": "inhibition at 500 µM", "setting": "[1]; read-out: % inhibition of mutagenicity, TA 100, 500 μM + NaN3, no S9", "result": 65.9, "unit": "%"},
      {"measurement": "Number of His+ revertants colonies/plate", "setting": "[1]; TA 100, 50 μM + 2AF, S9", "result": "426.0 ± 18.6", "unit": "colonies/plate"},
      {"measurement": "Number of His+ revertants colonies/plate", "setting": "[1]; TA 100, 50 μM + BP, S9", "result": "580.3 ± 25.6", "unit": "colonies/plate"},
      {"measurement": "Number of His+ revertants colonies/plate", "setting": "[1]; TA 100, 50 μM + MMS, no S9", "result": "900.3 ± 16.3", "unit": "colonies/plate"},
      {"measurement": "Number of His+ revertants colonies/plate", "setting": "[1]; TA 100, 50 μM + NaN3, no S9", "result": "340.7 ± 9.4", "unit": "colonies/plate"},
      {"measurement": "Number of His+ revertants colonies/plate", "setting": "[1]; TA 100, 100 μM + 2AF, S9", "result": "350.0 ± 12.8", "unit": "colonies/plate"},
      {"measurement": "Number of His+ revertants colonies/plate", "setting": "[1]; TA 100, 100 μM + BP, S9", "result": "472.3 ± 19.4", "unit": "colonies/plate"},
      {"measurement": "Number of His+ revertants colonies/plate", "setting": "[1]; TA 100, 100 μM + MMS, no S9", "result": "754.0 ± 8.2", "unit": "colonies/plate"},
      {"measurement": "Number of His+ revertants colonies/plate", "setting": "[1]; TA 100, 100 μM + NaN3, no S9", "result": "312.3 ± 8.4", "unit": "colonies/plate"},
      {"measurement": "Number of His+ revertants colonies/plate", "setting": "[1]; TA 100, 250 μM + BP, S9", "result": "336.0 ± 17.6", "unit": "colonies/plate"},
      {"measurement": "Number of His+ revertants colonies/plate", "setting": "[1]; TA 100, 250 μM + MMS, no S9", "result": "598.7 ± 14.2", "unit": "colonies/plate"},
      {"measurement": "Number of His+ revertants colonies/plate", "setting": "[1]; TA 100, 250 μM + NaN3, no S9", "result": "266.0 ± 7.8", "unit": "colonies/plate"},
      {"measurement": "Number of His+ revertants colonies/plate", "setting": "[1]; TA 100, 500 μM + 2AF, S9", "result": "240.7 ± 9.8", "unit": "colonies/plate"},
      {"measurement": "Number of His+ revertants colonies/plate", "setting": "[1]; TA 100, 500 μM + BP, S9", "result": "245.7 ± 14.4", "unit": "colonies/plate"},
      {"measurement": "Number of His+ revertants colonies/plate", "setting": "[1]; TA 100, 500 μM + MMS, no S9", "result": "420.3 ± 6.9", "unit": "colonies/plate"},
      {"measurement": "Number of His+ revertants colonies/plate", "setting": "[1]; TA 100, 500 μM + NaN3, no S9", "result": "210.3 ± 12.4", "unit": "colonies/plate"},
      {"measurement": "inhibition at 50 µM", "setting": "[2]; read-out: % inhibition of mutagenicity, TA 102, 50 μM + 2AF, S9", "result": 17.5, "unit": "%"},
      {"measurement": "inhibition at 50 µM", "setting": "[2]; read-out: % inhibition of mutagenicity, TA 102, 50 μM + BP, S9", "result": 11.5, "unit": "%"},
      {"measurement": "inhibition at 50 µM", "setting": "[2]; read-out: % inhibition of mutagenicity, TA 102, 50 μM + MMS, no S9", "result": 18.5, "unit": "%"},
      {"measurement": "inhibition at 50 µM", "setting": "[2]; read-out: % inhibition of mutagenicity, TA 102, 50 μM + NaN3, no S9", "result": 21.9, "unit": "%"},
      {"measurement": "inhibition at 100 µM", "setting": "[2]; read-out: % inhibition of mutagenicity, TA 102, 100 μM + 2AF, S9", "result": 45.9, "unit": "%"},
      {"measurement": "inhibition at 100 µM", "setting": "[2]; read-out: % inhibition of mutagenicity, TA 102, 100 μM + BP, S9", "result": 23.6, "unit": "%"},
      {"measurement": "inhibition at 100 µM", "setting": "[2]; read-out: % inhibition of mutagenicity, TA 102, 100 μM + MMS, no S9", "result": 30.3, "unit": "%"},
      {"measurement": "inhibition at 100 µM", "setting": "[2]; read-out: % inhibition of mutagenicity, TA 102, 100 μM + NaN3, no S9", "result": 40.3, "unit": "%"},
      {"measurement": "inhibition at 250 µM", "setting": "[2]; read-out: % inhibition of mutagenicity, TA 102, 250 μM + BP, S9", "result": 46.6, "unit": "%"},
      {"measurement": "inhibition at 250 µM", "setting": "[2]; read-out: % inhibition of mutagenicity, TA 102, 250 μM + MMS, no S9", "result": 44.3, "unit": "%"},
      {"measurement": "inhibition at 250 µM", "setting": "[2]; read-out: % inhibition of mutagenicity, TA 102, 250 μM + NaN3, no S9", "result": 50.7, "unit": "%"},
      {"measurement": "inhibition at 500 µM", "setting": "[2]; read-out: % inhibition of mutagenicity, TA 102, 500 μM + 2AF, S9", "result": 89, "unit": "%"},
      {"measurement": "inhibition at 500 µM", "setting": "[2]; read-out: % inhibition of mutagenicity, TA 102, 500 μM + BP, S9", "result": 83.7, "unit": "%"},
      {"measurement": "inhibition at 500 µM", "setting": "[2]; read-out: % inhibition of mutagenicity, TA 102, 500 μM + MMS, no S9", "result": 72.4, "unit": "%"},
      {"measurement": "inhibition at 500 µM", "setting": "[2]; read-out: % inhibition of mutagenicity, TA 102, 500 μM + NaN3, no S9", "result": 62.3, "unit": "%"},
      {"measurement": "Number of His+ revertants colonies/plate", "setting": "[2]; TA 102, 50 μM + 2AF, S9", "result": "1276.0 ± 38.0", "unit": "colonies/plate"},
      {"measurement": "Number of His+ revertants colonies/plate", "setting": "[2]; TA 102, 50 μM + BP, S9", "result": "653.0 ± 34.7", "unit": "colonies/plate"},
      {"measurement": "Number of His+ revertants colonies/plate", "setting": "[2]; TA 102, 50 μM + MMS, no S9", "result": "1071.0 ± 16.7", "unit": "colonies/plate"},
      {"measurement": "Number of His+ revertants colonies/plate", "setting": "[2]; TA 102, 50 μM + NaN3, no S9", "result": "345.3 ± 26.7", "unit": "colonies/plate"},
      {"measurement": "Number of His+ revertants colonies/plate", "setting": "[2]; TA 102, 100 μM + 2AF, S9", "result": "924.0 ± 25.3", "unit": "colonies/plate"},
      {"measurement": "Number of His+ revertants colonies/plate", "setting": "[2]; TA 102, 100 μM + BP, S9", "result": "595.0 ± 24.1", "unit": "colonies/plate"},
      {"measurement": "Number of His+ revertants colonies/plate", "setting": "[2]; TA 102, 100 μM + MMS, no S9", "result": "956.0 ± 19.6", "unit": "colonies/plate"},
      {"measurement": "Number of His+ revertants colonies/plate", "setting": "[2]; TA 102, 100 μM + NaN3, no S9", "result": "328.0 ± 28.2", "unit": "colonies/plate"},
      {"measurement": "Number of His+ revertants colonies/plate", "setting": "[2]; TA 102, 250 μM + BP, S9", "result": "514.0 ± 21.4", "unit": "colonies/plate"},
      {"measurement": "Number of His+ revertants colonies/plate", "setting": "[2]; TA 102, 250 μM + MMS, no S9", "result": "810.0 ± 19.1", "unit": "colonies/plate"},
      {"measurement": "Number of His+ revertants colonies/plate", "setting": "[2]; TA 102, 250 μM + NaN3, no S9", "result": "308.0 ± 23.6", "unit": "colonies/plate"},
      {"measurement": "Number of His+ revertants colonies/plate", "setting": "[2]; TA 102, 500 μM + 2AF, S9", "result": "431.0 ± 13.6", "unit": "colonies/plate"},
      {"measurement": "Number of His+ revertants colonies/plate", "setting": "[2]; TA 102, 500 μM + BP, S9", "result": "366.0 ± 25.0", "unit": "colonies/plate"},
      {"measurement": "Number of His+ revertants colonies/plate", "setting": "[2]; TA 102, 500 μM + MMS, no S9", "result": "506.0 ± 13.5", "unit": "colonies/plate"},
      {"measurement": "Number of His+ revertants colonies/plate", "setting": "[2]; TA 102, 500 μM + NaN3, no S9", "result": "288.3 ± 19.2", "unit": "colonies/plate"}
    ]}
  ]
}
